Source: ChEMBL document CHEMBL2057065, “The 3-Deoxy Analogue of α-GalCer: Disclosing the Role of the 4-Hydroxyl Group for CD1d-Mediated NKT Cell Activation” (ACS Med Chem Lett, 2011)
Activity calls are given as the source filed them.

Columns and labels:
Splenocyte [1] = assay: Immunostimulatory activity in mouse splenocytes assessed as IFNgamma production at 8 ng/ml after 72 hrs by ELISA; type: functional, cell-based
Splenocyte [2] = assay: Immunostimulatory activity in mouse splenocytes assessed as IL4 production at 8 ng/ml after 72 hrs by ELISA; type: functional, cell-based
Mus musculus = species: Mus musculus; assay: Immunostimulatory activity in mouse DN32.D3 NKT hybridoma cells assessed as IL-2 production after 16 hrs by ELISA; type: functional

Measured: Activity

CCCCCCCCCCCCCCCCCCCCCCCCCC(=O)N[C@@H](CO[C@H]1O[C@H](CO)[C@H](O)[C@H](O)[C@H]1O)[C@H](O)CCCCCCCCCCCCCCC
active: all assays above

CCCCCCCCCCCCCCCCCCCCCCCCCC(=O)N[C@@H](CO[C@H]1O[C@H](CO)[C@H](O)[C@H](O)[C@H]1O)C[C@H](O)CCCCCCCCCCCCCC
active: all assays above

CCCCCCCCCCCCCCCCCCCCCCCCCC(=O)N[C@@H](CO[C@H]1O[C@H](CO)[C@H](O)[C@H](O)[C@H]1O)[C@H](O)[C@H](O)CCCCCCCCCCCCCC
active: all assays above
